US6875770B2, “Indole derivative having heterocycle and mono- or diazaindole derivative” (Chugai Seiyaku Kabushiki Kaisha, priority 1998, dated 2005)

Experiments:
Human COX-2 = biological target: T1, Human COX-2 (Homo sapiens, UniProt P35354); assay: Inhibitory activity against human COX-2 using peripheral blood (LPS-stimulated, thromboxane B2 EIA); format: cell-based; details: LPS 10 μg/ml, 37° C. 5 hours
T1 construct: 500 μl of peripheral blood collected from a healthy volunteer; endogenous in cells; host or cells: human whole peripheral blood from a healthy volunteer, stimulated with LPS
T1 sequence (P35354 18-604): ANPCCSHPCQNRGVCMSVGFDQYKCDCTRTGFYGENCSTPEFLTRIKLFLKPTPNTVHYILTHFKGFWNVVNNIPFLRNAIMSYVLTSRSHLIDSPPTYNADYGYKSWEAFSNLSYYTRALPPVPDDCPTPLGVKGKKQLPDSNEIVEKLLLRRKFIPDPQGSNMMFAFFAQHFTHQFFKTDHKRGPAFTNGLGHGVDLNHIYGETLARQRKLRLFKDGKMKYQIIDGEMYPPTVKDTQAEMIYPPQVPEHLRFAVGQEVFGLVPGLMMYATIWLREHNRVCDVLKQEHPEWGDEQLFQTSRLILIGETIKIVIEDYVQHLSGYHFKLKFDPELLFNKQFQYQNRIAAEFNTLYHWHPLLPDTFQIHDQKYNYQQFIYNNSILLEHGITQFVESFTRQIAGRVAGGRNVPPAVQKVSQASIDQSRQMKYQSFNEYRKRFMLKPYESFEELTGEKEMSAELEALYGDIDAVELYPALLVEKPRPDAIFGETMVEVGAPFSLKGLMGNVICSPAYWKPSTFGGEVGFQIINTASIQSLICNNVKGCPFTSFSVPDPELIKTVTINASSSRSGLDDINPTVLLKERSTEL
Procedure: (§1) Method for Measuring Inhibitory Activity Against Human COX-1 and COX-2 Using Peripheral Blood
(§2) 1 μl of a solution of the compound of the present invention in DMSO was added to 500 μl of peripheral blood collected from a healthy volunteer.
In the case of measuring COX-2 activity, LPS (E. coli 026:B6) was added onto blood to which the compound has been added to a concentration of 10 μg/ml followed by incubating at 37° C. for 5 hours and transferring onto ice to stop the reaction.

Human COX-1 = biological target: T2, Human COX-1 (Homo sapiens, UniProt P23219); assay: Inhibitory activity against human COX-1 using peripheral blood (calcium ionophore A23187, thromboxane B2 EIA); format: cell-based; details: 37° C. 4.5 hours then A23187 500 μM 30 minutes
T2 construct: 500 μl of peripheral blood collected from a healthy volunteer; endogenous in cells; host or cells: human whole peripheral blood from a healthy volunteer, stimulated with calcium ionophore A23187
Procedure: as §1, §2
In the case of measuring COX-1 activity, after incubating at 37° C. for 4.5 hours, calcium ionophore A23187 was added to a final concentration of 500 μM followed by additional incubation at 37° C. for 30 minutes and transferring to ice to stop the reaction.

T2 sequence (P23219 24-599): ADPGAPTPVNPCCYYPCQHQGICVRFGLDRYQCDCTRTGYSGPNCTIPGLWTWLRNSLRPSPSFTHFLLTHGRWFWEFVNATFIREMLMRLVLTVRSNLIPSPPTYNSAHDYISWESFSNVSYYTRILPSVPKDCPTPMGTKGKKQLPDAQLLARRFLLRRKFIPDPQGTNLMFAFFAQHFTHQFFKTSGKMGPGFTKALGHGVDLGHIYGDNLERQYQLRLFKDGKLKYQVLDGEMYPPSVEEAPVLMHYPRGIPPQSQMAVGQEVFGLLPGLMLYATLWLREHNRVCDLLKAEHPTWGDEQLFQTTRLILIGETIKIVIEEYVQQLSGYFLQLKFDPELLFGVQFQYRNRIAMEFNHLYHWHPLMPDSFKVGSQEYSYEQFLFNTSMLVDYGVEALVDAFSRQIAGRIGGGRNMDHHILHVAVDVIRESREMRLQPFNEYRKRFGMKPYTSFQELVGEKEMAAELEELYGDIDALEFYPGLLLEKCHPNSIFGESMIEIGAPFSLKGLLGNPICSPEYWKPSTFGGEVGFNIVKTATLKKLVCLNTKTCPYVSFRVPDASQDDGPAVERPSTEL

| IC50 (Human COX-2) | IC50 (Human COX-1) | melting point | SMILES |
| --- | --- | --- | --- |
| 0.8 µM | > 20 µM |  | CNC(=O)c1ccc(-c2cc3cc(S(C)(=O)=O)ccc3n2Cc2ccc(F)cc2)nc1 [Example 17, 1-(4-Fluorobenzyl)-5-methanesulfonyl-2-(5-methylaminocarbonylpyridin-2-yl)indole] |
| 0.8 µM | > 20 µM |  | CS(=O)(=O)c1ccc2c(c1)cc(-c1ccco1)n2Cc1ccc(F)cc1 [Example 8, 2-(2-Furanyl)-1-(4-fluorobenzyl)-5-methanesulfonyl-1H-indole] |
| 0.5 µM | > 20 µM |  | CS(=O)(=O)c1ccc2c(c1)cc(-c1nccs1)n2Cc1ccc(F)cc1 [Example 2, 1-(4-Fluorobenzyl)-5-methanesulfonyl-2-(thiazol-2-yl)indole] |
| 0.4 µM | > 20 µM |  | CS(=O)(=O)c1cnc2c(c1)cc(-c1ccccn1)n2Cc1ccc(F)cc1 [Example 5, 5-Methanesulfonyl-2-(2-pyridyl)-1-(4-fluorobenzyl)-1H-pyrrolo[2,3-b]pyridine] |
| 0.15 µM | > 20 µM |  | CS(=O)(=O)c1cnc2c(c1)cc(-c1ccco1)n2Cc1ccc(F)cc1 [Example 1, 2-(2-Furyl)-1-(4-fluorobenzyl)-5-methanesulfonyl-1H-pyrrolo[2,3-b]pyridine] |
| 4 µM | > 10 µM |  | CS(=O)(=O)c1ccc2c(c1)cc(C1CCCO1)n2Cc1ccc(F)cc1 (stereo not shown) [Example 13, 2-(2-Tetrahydrofuranyl)-1-(4-fluorobenzyl)-5-methanesulfonyl-indole] |
| 0.3 µM | > 20 µM | 200 to 201 °C | CS(=O)(=O)c1cnc2c(c1)cc(-c1ncco1)n2Cc1ccc(F)cc1 [Example 3, 1-(4-Fluorobenzyl)-2-(oxazol-2-yl)-5-methanesulfonyl-1H-pyrrolo[2,3-b]pyridine] |
| 4 µM | > 20 µM |  | CS(=O)(=O)c1ccc2c(c1)cc(-c1nnco1)n2Cc1ccc(F)cc1 [Example 4, 1-(4-Fluorobenzyl)-5-methanesulfonyl-2-([1,3,4]oxadiazol-2-yl)indole] |
| 1.5 µM | > 20 µM |  | CS(=O)(=O)c1cnc2c(c1)cc(-c1ncccn1)n2CC1CCCCC1 [Example 7, 1-Cyclohexylmethyl-5-methanesulfonyl-2-(2-pyrimidinyl)-1H-pyrrolo[2,3-b]pyridine] |
| 1.5 µM | > 20 µM |  | CS(=O)(=O)c1cnc2c(c1)cc(-c1ccco1)n2Cc1ccccn1 [Example 10, 2-(2-Furanyl)-5-methanesulfonyl-1-(2-pyridylmethyl)-1H-pyrrolo[2,3-b]pyridine] |
| 0.2 µM | > 20 µM |  | CS(=O)(=O)c1cnc2c(c1)cc(-c1nnco1)n2Cc1ccc(F)cc1 [Example 33, 1-(4-Fluorobenzyl)-5-methanesulfonyl-2-([1,3,4]oxadiazol-2-yl)-1H-pyrrolo[2,3-b]pyridine] |
| 0.15 µM | > 20 µM |  | CS(=O)(=O)c1cnc2c(c1)cc(-c1ccco1)n2CC1CCCCC1 [Example 12, 2-(2-Furanyl)-1-cyclohexylmethyl-5-methanesulfonyl-1H-pyrrolo[2,3-b]pyridine] |
| 0.1 µM | > 20 µM |  | CS(=O)(=O)c1ccc2c(c1)cc(C1=CCOCC1)n2Cc1ccc(F)cc1 [Example 14, 2-(5,6-Dihydro-2H-4-pyranyl)-1-(4-fluorobenzyl)-5-methanesulfonyl-indole] |
| 0.2 µM | > 20 µM |  | Cc1ccc(-c2cc3cc(S(C)(=O)=O)cnc3n2Cc2ccc(F)cc2)o1 [Example 11, 1-(4-Fluorobenzyl)-5-methanesulfonyl-2-(5-methylfuran-2-yl)-1H-pyrrolo[2,3-b]pyridine] |

| SMILES | IC50 (Human COX-2) | IC50 (Human COX-1) | melting point |
| --- | --- | --- | --- |
| CS(=O)(=O)c1ccc2c(c1)cc(-c1ccco1)n2CC1CCCCC1 [Example 9, 1-Cyclohexylmethyl-2-(2-furanyl)-5-methanesulfonylindole] | 2 µM | > 20 µM |  |
